The nature of series [1]: Cell viability staining with Alamar Blue (compound cytotoxicity). The format is cell-based. The settings on record: positive control with known CC50. The protocol:
To determine whether the microcidal effect observed against S. aureus and E. coli is specific to bacterial cells, compounds are screened for cell viability effects on several human cell types.
Optimal cell density is first determined by plating cells in a 96-well plate standard sterile tissue culture plates in 100 μl media, 10% FBS at six cell densities from 500 cells/well to 15,000 cells/well. A cell free well containing only media is used as a control. Cells are incubated at 37° C. in a 5% CO2 incubator for 24 hours. 10% culture volume (10 ul) of Alamar Blue (Biosource, DAL1100, 100 mL) is then added. Cells are incubated at 37° C. in a 5% CO2 incubator and read in a Victor V plate reader, 544 nm excitation, 590 nm emission, at 3, 4, and 24 hours after the addition of Alamar Blue. The cell number vs. change in fluorescence is plotted to determine linearity of signal vs. cell number. The optimal density varies between 500-15,000 cells/well depending on the specific cell type. […]
Cells are plated at optimal cell density in a standard sterile tissue culture 96 well plate, and incubated at 37° C. […] Plates are incubated 4 hours at 37° C. in a 5% CO2 incubator and read in a Victor V plate reader, 544 nm excitation, 590 nm emission. […]
The change in fluorescence vs. concentration of test compound is plotted to determine the cytotoxicity of the compound. […]

As to `NC1CCc2cc(-c3cc4c(cc3F)c(=O)c3c(=O)[nH]sc3n4C3CC3)ccc2C1` (racemic) [Compound 31, (rac)-7-(6-Amino-5,6,7,8-tetrahydronaphthalen-2-yl)-9-cyclopropyl-6-fluoro-9H-isothiazolo[5,4-b]quinoline-3,4-dione], the melting point is > 257 °C (dec.).

`CC(C)(C)c1ccc(C(O)CCCN2CCC(C(O)(c3ccccc3)c3ccccc3)CC2)cc1` (stereo not shown) [Terfenadine]: the CC50 in series [1] (Chinese hamster, CHO cells (Chinese hamster ovary)) is 4.3 to 6.5 µM; in series [1] (human, Hep 2 cells (laryngeal carcinoma)), 3 to 5 µM.

On to `O=c1[nH]sc2c1c(=O)c1cc(F)c(C3=CCNCC3)cc1n2C1CC1`, for which the melting point is > 241 °C (dec.).

As usually defined, the melting point is the temperature, or range, at which the solid turns liquid. One may read the CC50 as the concentration that lowers cell viability or growth by half. Higher therefore signals better tolerance by the cells.

The values above are taken from US8114888B2, “Isothiazoloquinolones and related compounds as anti-infective agents” (Achillion Pharmaceuticals, Inc., priority 2005, dated 2012).
